Data from patent US20030228675A1, “ATM related kinase ATX, nucleic acids encoding same and methods of use” (priority 2002, published 2003).

Experiments:
Assay type in all cases: cell-based, human
p53 = assay: Stress-induced p53 Ser-15 phosphorylation and p53 accumulation by immunoblotting
Protocol: To prepare recombinant HA-tagged ATX and ATM proteins, HEK 293T cells were plated onto 60-mm dishes (9×10^5 cells per dish), and were transfected with 5 μg pcDNA3.1 (empty vector), HA-ATXWT, HA-ATXKI, or HA-ATMWT plasmid DNAS. Transfections were performed with the Fugene 6 transfection reagent (Roche), according to the manufacturer's instructions. For NMD assays (see Example 9, below), U2OS cells were seeded onto 100 mm dishes (1×10^6 cells per dish). After 20 h, cells were transfected with 1.5 μg of pmCMV-Gl test plasmid, either Norm or 39Ter (Ishigaki et al., 2001); 1.5 μg of phCMV-MUP reference plasmid (Ishigaki et al., Cell 106:607-617 (2001)); and 7 μg of empty plasmid (pcDNA 3.1), plasmids encoding HA-ATMWT, HA-ATMKI, HA-ATXWT or HA-ATXKI. For antisense transfection experiments, U2OS cells were seeded onto 60 mm dishes (1×10^5 cells per dish) in complete medium supplemented with penicillin/streptomycin. After 30 h, cells were either mock transfected or transfected with sense (S) or antisense (AS) phosphorothioate oligonucleotides (Genset Oligos, La Jolla, Calif.). The S oligonucleotide spans ATX nucleotides 210-229 (5′-[…]-3′), and the AS oligonucleotide is complementary to this sequence (5′-[…]-3′). The cells were transfected with oligonucleotides at final concentrations of 8 μg/ml, with Fugene 6:DNA ratio of 1.6:1. Forty-eight hours after transfection, dishes were exposed to IR, UV-B, or 5-FU, and then harvested for immunoblotting, cell-cycle distribution, or cell survival assays. To examine ATX protein levels in oligonucleotide-treated cells, whole cell extracts were resolved by SDS-PAGE and immunoblotted with α-ATX Ab-1. When oligonucleotide-transfected cells were used for NMD assays, U2OS cells were seeded in culture dishes as described above. The cells were transfected using the Fugene reagent, with 1.5 μg of pmCMV-Gl test plasmid, 0.7 μg of phCMV-MUP reference plasmid, and 24 μg of S or AS oligonucleotide.
A major mediator of stress-induced signaling in mammalian cells is the tumor suppressor protein, p53 (Ko and Prives, Genes and Development 10:1054-1072, (1996); Ryan et al., Curr. Opin. Cell Biol. 13:332-337 (2001)). ATX phosphorylates p53 on Ser-15 (FIG. 1C), a site implicated in the regulation of p53 stability and transcriptional activity (Dumaz and Meek, Curr. Opin. Cell Biol. 13:225-231 (1999); Zhang and Xiong, Science 292:1910-1915 (2001)). Therefore, the possibility that these two proteins are functionally linked during cellular stress responses was investigated. U2OS cells were transiently transfected with a HA-ATXWT or HA-ATXKI expression plasmid, together with a GFP-encoding plasmid to allow for FACS-based enrichment of the transfected cells. The GFP+ cells were then examined for IR-induced stabilization of p53, as well as for specific phosphorylation of this protein on Ser-15. […] In contrast, overexpression of ATXWT enhanced both of these responses in cells exposed to IR.
The recognition of UV light-induced DNA damage occurs primarily during S phase, when pyrimidine dimers and other bulky lesions interfere with replication fork progression (Friedberg, DNA Repair and Mutagenesis (Washington, D.C., ASM Press) (1995); Lindahl and Wood, Cell 103:1121-1131 (1999)).
In order to further define the potential linkage between DNA replicational stress and ATX, the response of AS-treated cells to 5-fluorouracil (5-FU), an S-phase specific cytotoxic agent was examined (Danenberg et al., Seminars in Oncology 26:621-631 (1999); Grem, Investigational New Drugs 18:299-313 (2000)).
Changes in phosphorylation at Ser-15 are typically accompanied by alterations in the expression of the p53 protein, which complicates the interpretation of results obtained by immunoblotting of whole cell extracts with phospho-Ser-15-specific antibodies. […]

ATX = assay: Protein levels in oligonucleotide-treated cells by immunoblotting; conditions: U2OS
Protocol: (§1) To prepare recombinant HA-tagged ATX and ATM proteins, HEK 293T cells were plated onto 60-mm dishes (9×10^5 cells per dish), and were transfected with 5 μg pcDNA3.1 (empty vector), HA-ATXWT, HA-ATXKI, or HA-ATMWT plasmid DNAS. Transfections were performed with the Fugene 6 transfection reagent (Roche), according to the manufacturer's instructions. For NMD assays (see Example 9, below), U2OS cells were seeded onto 100 mm dishes (1×10^6 cells per dish). After 20 h, cells were transfected with 1.5 μg of pmCMV-Gl test plasmid, either Norm or 39Ter (Ishigaki et al., 2001); 1.5 μg of phCMV-MUP reference plasmid (Ishigaki et al., Cell 106:607-617 (2001)); and 7 μg of empty plasmid (pcDNA 3.1), plasmids encoding HA-ATMWT, HA-ATMKI, HA-ATXWT or HA-ATXKI. […]
Since p53 plays a central role in activation of the G1 checkpoint, and influences S, G2, and M checkpoints as well (Giaccia and Kastan, Genes & Development 12:2973-2983 (1998); Ko and Prives, supra, 1996), a functional deficiency of ATX might alter the cell-cycle arrest responses to IR and other genotoxic agents. To test this possibility, U2OS cells were pre-treated with S or AS oligonucleotides, exposed to IR, and cell-cycle distributions at 24 h post-irradiation were determined. […]

[1] = system: NMD of the Ter-containing β-globin mRNA; assay: NMD assay, β-globin Ter mRNA by RT-PCR; conditions: U2OS, reduced endogenous ATX expression
Protocol: as §1, with “HA-ATXKI. For antisense transfection experiments, U2OS cells were seeded onto 60 mm dishes (1×10^5 cells per dish) in complete medium supplemented with penicillin/streptomycin.” for “HA-ATXKI.”
Total or nuclear RNA was isolated using Trizol (Invitrogen) or the NE-PER kit (Pierce), respectively. The extent of NMD was determined by using RT-PCR to quantitate the levels of Globin and MUP mRNA as described previously (Ishigaki et al., Cell 83: 1-4 (2001)), except that 21 cycles of PCR were used when analyzing the effects of ATX-specific S and AS oligonucleotides.

5′-AGCAAGCTCCCTCCTGTCTC-3′ (all phosphorothioate, sugars by position and methylation of C not given here) [AS oligonucleotide, ATX antisense phosphorothioate oligonucleotide complementary to ATX nucleotides 210-229]
stoichiometric increase in Ser-15 phosphorylation (phospho-Ser-15 to total p53) triggered by UV (p53; U2OS pretreated with proteasome inhibitor LLnV, UV): effectively blocked
level of p53 induction by 5-FU (p53; U2OS, 5-FU exposure, versus S-treated cells): identical to that observed in their S-treated counterparts
phosphorylation and stabilization of p53 induced by IR exposure (p53; U2OS, IR): reduced both the phosphorylation and stabilization of p53
Ser-15 phosphorylation and p53 protein accumulation in UV-damaged cells (p53; U2OS, UV): severely impaired both Ser-15 phosphorylation and p53 protein accumulation
expression levels of control proteins ATM and PLC-γ1 (ATX; immunoblot): no significant change
reduction in ATX protein (ATX; over 10 independent trials): 50-90%
NMD activity [1]: ATX expression is required for maximal NMD activity
